According to PubChem BioAssay (NCI):
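96-well plates; 48 h exposure; 5 concentrations. Endpoints by linear interpolation between flanking doses. Not reached: highest tested concentration assigned. Definition used: TGI = concentration required for complete inhibition of growth.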

Experiments:
Assay in all cases: inhibition of tumour cell growth, NCI panel, 48 h
[1] = system: A498 renal
[2] = system: A549 NSCLC
[3] = system: ACHN renal
[4] = system: CCRF-CEM leukemia
[5] = system: COLO 205 colon
[6] = system: DLD-1 colon
[7] = system: DMS 114 small cell lung
[8] = system: DMS 273 small cell lung
[9] = system: EKVX NSCLC
[10] = system: HCC-2998 colon
[11] = system: HCT-116 colon
[12] = system: HCT-15 colon
[13] = system: HL-60(TB) leukemia
[14] = system: HOP-62 NSCLC
[15] = system: HOP-92 NSCLC
[16] = system: HT29 colon
[17] = system: IGROV1 ovarian
[18] = system: KM12 colon
[19] = system: KM20L2 colon
[20] = system: LOX IMVI melanoma
[21] = system: LXFL 529 NSCLC
[22] = system: M14 melanoma
[23] = system: M19-MEL melanoma
[24] = system: MALME-3M melanoma
[25] = system: MOLT-4 leukemia
[26] = system: NCI-H226 lung
[27] = system: NCI-H23 lung
[28] = system: NCI-H460 lung
[29] = system: NCI-H522 lung
[30] = system: OVCAR-3 ovarian
[31] = system: OVCAR-4 ovarian
[32] = system: OVCAR-5 ovarian
[33] = system: OVCAR-8 ovarian
[34] = system: RPMI-8226 leukemia
[35] = system: RXF 393 renal
[36] = system: SF-268 CNS
[37] = system: SF-295 CNS
[38] = system: SF-539 CNS
[39] = system: SK-MEL-2 melanoma
[40] = system: SK-MEL-28 melanoma
[41] = system: SK-MEL-5 melanoma
[42] = system: SK-OV-3 ovarian
[43] = system: SN12C renal
[44] = system: SNB-19 CNS
[45] = system: SNB-75 CNS
[46] = system: SNB-78 CNS
[47] = system: SR leukemia
[48] = system: SW-620 colon
[49] = system: TK-10 renal
[50] = system: U251 CNS
[51] = system: UACC-257 melanoma
[52] = system: UACC-62 melanoma
[53] = system: XF 498 CNS
[54] = system: 786-0 renal
[55] = system: BT-549 breast
[56] = system: CAKI-1 renal
[57] = system: DU-145 prostate
[58] = system: HOP-18 NSCLC
[59] = system: HS 578T breast
[60] = system: K-562 leukemia
[61] = system: MCF7 breast
[62] = system: MDA-MB-231 breast
[63] = system: MDA-MB-435
[64] = system: MDA-N
[65] = system: NCI/ADR-RES ovarian
[66] = system: PC-3 prostate
[67] = system: T-47D breast
[68] = system: UO-31 renal
[69] = system: RXF-631 renal

CN(CCO)/N=N/c1nc[nH]c1C(N)=O
TGI [1]: > 100 µM
TGI [2]: > 100 µM
TGI [3]: > 100 µM
TGI [4]: > 100 µM
TGI [5]: > 100 µM
TGI [6]: > 100 µM
TGI [7]: > 100 µM
TGI [8]: > 100 µM
TGI [9]: > 100 µM
TGI [10]: > 100 µM
TGI [11]: > 100 µM
TGI [12]: > 100 µM
TGI [13]: > 100 µM
TGI [14]: > 100 µM
TGI [15]: > 100 µM
TGI [16]: > 100 µM
TGI [17]: > 100 µM
TGI [18]: > 100 µM
TGI [19]: > 100 µM
TGI [20]: > 100 µM
TGI [21]: > 100 µM
TGI [22]: > 100 µM
TGI [23]: > 100 µM
TGI [24]: > 100 µM
TGI [25]: > 100 µM
TGI [26]: > 100 µM
TGI [27]: > 100 µM
TGI [28]: > 100 µM
TGI [29]: > 100 µM
TGI [30]: > 100 µM
TGI [31]: > 100 µM
TGI [32]: > 100 µM
TGI [33]: > 100 µM
TGI [34]: > 100 µM
TGI [35]: > 100 µM
TGI [36]: > 100 µM
TGI [37]: > 100 µM
TGI [38]: > 100 µM
TGI [39]: > 100 µM
TGI [40]: > 100 µM
TGI [41]: > 100 µM
TGI [42]: > 100 µM
TGI [43]: > 100 µM
TGI [44]: > 100 µM
TGI [45]: > 100 µM
TGI [46]: > 100 µM
TGI [47]: > 100 µM
TGI [48]: > 100 µM
TGI [49]: > 100 µM
TGI [50]: > 100 µM
TGI [51]: > 100 µM
TGI [52]: > 100 µM
TGI [53]: > 100 µM

CCCc1cc(-c2ccc(-c3cc(CCC)c(C=O)[nH]3)s2)[nH]c1C=O
TGI [54]: > 100 µM
TGI [1]: > 100 µM
TGI [2]: 22.7 µM
TGI [3]: > 100 µM
TGI [55]: > 100 µM
TGI [56]: > 100 µM
TGI [4]: > 100 µM
TGI [5]: > 100 µM
TGI [6]: > 100 µM
TGI [7]: 65 µM
TGI [8]: > 100 µM
TGI [57]: > 100 µM
TGI [9]: > 100 µM
TGI [10]: 22.9 µM
TGI [11]: > 100 µM
TGI [12]: > 100 µM
TGI [13]: > 48.8 µM
TGI [58]: > 100 µM
TGI [14]: > 100 µM
TGI [15]: > 100 µM
TGI [59]: > 100 µM
TGI [16]: > 19.9 µM
TGI [17]: > 100 µM
TGI [60]: > 100 µM
TGI [18]: > 100 µM
TGI [20]: 32.1 µM
TGI [21]: > 100 µM
TGI [22]: > 100 µM
TGI [23]: > 100 µM
TGI [24]: > 100 µM
TGI [61]: > 100 µM
TGI [62]: > 100 µM
TGI [63]: > 100 µM
TGI [64]: > 100 µM
TGI [25]: > 100 µM
TGI [26]: > 100 µM
TGI [27]: > 86.1 µM
TGI [28]: > 100 µM
TGI [29]: 17.9 µM
TGI [65]: > 100 µM
TGI [30]: > 100 µM
TGI [31]: > 100 µM
TGI [32]: 58.7 µM
TGI [33]: > 100 µM
TGI [66]: > 100 µM
TGI [34]: > 100 µM
TGI [35]: > 87.9 µM
TGI [36]: > 100 µM
TGI [37]: > 92.4 µM
TGI [38]: > 100 µM
TGI [39]: > 59.7 µM
TGI [40]: > 100 µM
TGI [41]: > 100 µM
TGI [42]: > 100 µM
TGI [43]: > 100 µM
TGI [44]: > 100 µM
TGI [45]: > 100 µM
TGI [46]: > 100 µM
TGI [47]: > 100 µM
TGI [48]: > 100 µM
TGI [67]: > 100 µM
TGI [49]: > 100 µM
TGI [50]: > 100 µM
TGI [51]: > 100 µM
TGI [52]: > 100 µM
TGI [68]: > 100 µM
TGI [53]: > 100 µM

O=C(O)CN=c1c2ccccc2n(O)c2ccccc12
TGI [54]: > 100 µM
TGI [1]: > 100 µM
TGI [2]: > 100 µM
TGI [3]: > 100 µM
TGI [56]: > 100 µM
TGI [4]: 53.6 µM
TGI [5]: > 100 µM
TGI [6]: > 100 µM
TGI [7]: > 100 µM
TGI [8]: > 100 µM
TGI [9]: > 100 µM
TGI [10]: > 100 µM
TGI [11]: > 100 µM
TGI [12]: > 100 µM
TGI [13]: 43 µM
TGI [58]: > 100 µM
TGI [14]: > 100 µM
TGI [16]: > 100 µM
TGI [17]: > 100 µM
TGI [60]: 26.9 µM
TGI [18]: > 100 µM
TGI [19]: > 100 µM
TGI [20]: > 100 µM
TGI [21]: > 100 µM
TGI [22]: > 100 µM
TGI [23]: > 100 µM
TGI [24]: > 100 µM
TGI [25]: > 100 µM
TGI [26]: > 100 µM
TGI [27]: > 100 µM
TGI [28]: > 100 µM
TGI [29]: > 100 µM
TGI [30]: > 100 µM
TGI [31]: > 100 µM
TGI [32]: > 100 µM
TGI [33]: > 100 µM
TGI [34]: > 100 µM
TGI [69]: > 100 µM
TGI [36]: > 100 µM
TGI [37]: > 100 µM
TGI [39]: > 100 µM
TGI [40]: > 100 µM
TGI [41]: > 100 µM
TGI [42]: > 100 µM
TGI [43]: > 100 µM
TGI [44]: > 100 µM
TGI [45]: > 100 µM
TGI [46]: > 100 µM
TGI [48]: > 100 µM
TGI [49]: > 100 µM
TGI [50]: > 100 µM
TGI [51]: > 100 µM
TGI [52]: > 100 µM
TGI [68]: > 100 µM
